{"source": "patent US10428074B2", "about": "“Pyrrole heteroaryl ring derivative and method of use thereof” (Jiangsu Hengrui Medicine Co., Ltd., priority 2011, dated 2019)", "key": {"[1]": {"assay": "Pharmacokinetics assay in rats, intragastric administration", "type": "in vivo, Sprague-Dawley (SD) rats", "details": "SD rats, 10 mg/kg", "procedure": "Rats were used as test animals. […] The pharmacokinetic behavior of the compounds of the present invention was studied and evaluated in rats.\n56 Healthy adult Sprague-Dawley (SD) rats, half male and half female, purchased from SINO-BRITSH SIPPR/BK LAB.\nThe appropriate amount of test compounds were weighed and mixed with 1.0 mL of dimethyl sulfoxide to prepare a 1.0 mg/mL suspension.\nAfter an overnight fast, SD rats were administered intragastrically at a dose of 10.0 mg/kg and an administration volume of 10 mL/kg.\nThe plasma samples were stored at −20° C. The rats were fed 2 hours after administration.\nContent determination of the test compounds in rat plasma after intragastrically administering at different concentrations: 50 μL of rat plasmas taken at various time points after administration were mixed with 50 μL of internal standard solution and 100 μL of methanol and mixed for 3 minutes by a vortexer. The mixture was centrifuged for 10 minutes at 13,500 rpm. 10 μL of the supernatant was taken from the plasma sample and analyzed by LC-MS/MS."}, "[2]": {"test_system": "human erythroid leukemia cell line TF-1", "assay": "Proliferation inhibition assay on TF-1 cells mediated by IL-4", "type": "cell-based", "details": "10 ng/mL IL-4, 72 hours", "source_text": "The following in vitro assay is to determine the activity of the compounds of the present invention for inhibiting the proliferation of human erythroid leukemia cell line TF-1.\nThe activity is represented by the IC50 value, which can not only reflect the activity of a test compound for inhibiting JAK2 and JAK3 kinase, but can also reflect the selectivity of a test compound for JAK2 and JAK3 kinase.\nThe general procedures of the assay are given as follows: first, the TF-1 cells (purchased from ATCC, Catalog number: CRL 2003) were seeded in a 96-well cell culture plate at a suitable cell concentration (8000 cells/mL medium), and 10 ng/mL IL-4 (Invitrogen, Catalog Number: PHC0044) were added to each well. Then 10× serial concentration gradient of test compounds solutions (10000, 1000, 100, 10, 1 and 0.1 nM) were prepared, and then the 10× compound solutions prepared above were added to the 96-well cell culture plate containing IL-4. After the cell plates were cultured continuously for 72 hours, the activity of the test compounds for inhibiting the cell proliferation was determined by using a Cell Counting Kit-8 (purchased from Dojindo, Catalog Number: CK04). IC50 values were calculated from the data of the inhibition rates at various concentrations of the test compounds."}, "T cells": {"test_system": "T cells", "assay": "Proliferation inhibition assay on T cells (PBMC, anti-CD3, IL-2)", "type": "cell-based, human", "details": "Homo sapiens, T-cell, IL-2 10 ng/mL", "source_text": "The following in vitro assay is to determine the activity of the compounds of the present invention for inhibiting the proliferation of T cells.\nThe activity is represented by the IC50 value.\nThe general procedures of the assay are given as follows: first, the PBMC cell line (purchased from Shanghai Blood Center) was centrifuged, the supernatant was removed, and the cells counted. […] Then, the cells were washed 3 times, resuspended, diluted to 2×10^6/mL, and then mixed with recombinant human IL-2 (purchased from Peprotech, Catalog Number: 200-02) to a concentration of 10 ng/mL, and cultured for another 3 days. The cells were washed again 3 times, and diluted to 5×10^5/mL. 80 μL of the cells were seeded in each well of a 96-well cell culture plate. […] To he control wells, 10 μL culture medium were added. The plate was placed in an incubator. After incubating for 1 hr, negative control wells were mixed with 10 μL of culture medium, and the rest of the wells were mixed with IL-2 to a concentration of 10 ng/mL, and incubated continuously for 72 hours. […] IC50 values were calculated from the data of inhibition rates at various concentrations of the test compounds."}, "JAK3 kinase": {"target": "JAK3 kinase (Homo sapiens, UniProt P52333)", "sequence (P52333 whole entry, looked up)": "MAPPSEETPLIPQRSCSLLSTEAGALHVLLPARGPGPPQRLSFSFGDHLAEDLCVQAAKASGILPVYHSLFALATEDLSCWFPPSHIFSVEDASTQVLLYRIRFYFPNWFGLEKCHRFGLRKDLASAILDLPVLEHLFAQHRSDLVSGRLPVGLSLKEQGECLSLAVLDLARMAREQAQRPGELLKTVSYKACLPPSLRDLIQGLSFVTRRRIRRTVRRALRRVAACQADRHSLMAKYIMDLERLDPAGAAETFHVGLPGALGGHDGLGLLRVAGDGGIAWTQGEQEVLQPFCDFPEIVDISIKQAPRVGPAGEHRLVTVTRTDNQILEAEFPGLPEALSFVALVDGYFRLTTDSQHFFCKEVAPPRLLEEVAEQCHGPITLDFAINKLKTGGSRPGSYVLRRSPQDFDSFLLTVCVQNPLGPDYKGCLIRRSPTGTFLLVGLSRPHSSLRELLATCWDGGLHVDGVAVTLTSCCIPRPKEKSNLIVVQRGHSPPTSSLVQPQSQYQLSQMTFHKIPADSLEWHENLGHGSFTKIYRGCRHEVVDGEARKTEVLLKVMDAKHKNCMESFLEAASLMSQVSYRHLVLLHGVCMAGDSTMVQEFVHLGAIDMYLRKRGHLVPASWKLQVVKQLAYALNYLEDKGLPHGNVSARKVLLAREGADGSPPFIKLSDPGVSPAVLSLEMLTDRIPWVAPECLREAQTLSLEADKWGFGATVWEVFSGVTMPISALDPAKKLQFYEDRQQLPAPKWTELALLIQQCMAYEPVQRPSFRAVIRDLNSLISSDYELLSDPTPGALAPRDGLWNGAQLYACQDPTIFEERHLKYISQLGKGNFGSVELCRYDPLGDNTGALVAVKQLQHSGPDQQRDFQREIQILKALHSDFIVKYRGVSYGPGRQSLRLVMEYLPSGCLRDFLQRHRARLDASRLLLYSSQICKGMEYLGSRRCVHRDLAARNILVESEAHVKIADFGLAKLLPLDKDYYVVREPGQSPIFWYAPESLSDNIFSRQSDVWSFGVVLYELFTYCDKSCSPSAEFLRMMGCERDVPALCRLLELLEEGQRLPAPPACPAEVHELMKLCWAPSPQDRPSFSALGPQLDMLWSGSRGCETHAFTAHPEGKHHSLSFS", "assay": "Assay for inhibiting JAK3 kinase (in vitro kinase assay)", "type": "biochemical", "details": "20 μM ATP; read-out: IC50 (JAK3/Bio)", "procedure": "In vitro activity of compounds of the present invention for inhibiting JAK3 kinase was determined by the following method."}, "JAK1 kinase": {"target": "JAK1 kinase (Homo sapiens, UniProt P23458)", "assay": "Assay for inhibiting JAK1 kinase (in vitro kinase assay)", "type": "biochemical", "details": "20 μM ATP; read-out: IC50 (JAK1/Bio)", "procedure": "In vitro activity of compounds of the present invention for inhibiting JAK1 kinase was determined by the following method.\nIC50 values of test compounds was calculated from the data of the test compounds in inhibiting the activity of JAK1 kinase at different concentrations."}, "JAK2 kinase": {"target": "JAK2 kinase (Homo sapiens, UniProt O60674)", "sequence (O60674 whole entry, looked up)": "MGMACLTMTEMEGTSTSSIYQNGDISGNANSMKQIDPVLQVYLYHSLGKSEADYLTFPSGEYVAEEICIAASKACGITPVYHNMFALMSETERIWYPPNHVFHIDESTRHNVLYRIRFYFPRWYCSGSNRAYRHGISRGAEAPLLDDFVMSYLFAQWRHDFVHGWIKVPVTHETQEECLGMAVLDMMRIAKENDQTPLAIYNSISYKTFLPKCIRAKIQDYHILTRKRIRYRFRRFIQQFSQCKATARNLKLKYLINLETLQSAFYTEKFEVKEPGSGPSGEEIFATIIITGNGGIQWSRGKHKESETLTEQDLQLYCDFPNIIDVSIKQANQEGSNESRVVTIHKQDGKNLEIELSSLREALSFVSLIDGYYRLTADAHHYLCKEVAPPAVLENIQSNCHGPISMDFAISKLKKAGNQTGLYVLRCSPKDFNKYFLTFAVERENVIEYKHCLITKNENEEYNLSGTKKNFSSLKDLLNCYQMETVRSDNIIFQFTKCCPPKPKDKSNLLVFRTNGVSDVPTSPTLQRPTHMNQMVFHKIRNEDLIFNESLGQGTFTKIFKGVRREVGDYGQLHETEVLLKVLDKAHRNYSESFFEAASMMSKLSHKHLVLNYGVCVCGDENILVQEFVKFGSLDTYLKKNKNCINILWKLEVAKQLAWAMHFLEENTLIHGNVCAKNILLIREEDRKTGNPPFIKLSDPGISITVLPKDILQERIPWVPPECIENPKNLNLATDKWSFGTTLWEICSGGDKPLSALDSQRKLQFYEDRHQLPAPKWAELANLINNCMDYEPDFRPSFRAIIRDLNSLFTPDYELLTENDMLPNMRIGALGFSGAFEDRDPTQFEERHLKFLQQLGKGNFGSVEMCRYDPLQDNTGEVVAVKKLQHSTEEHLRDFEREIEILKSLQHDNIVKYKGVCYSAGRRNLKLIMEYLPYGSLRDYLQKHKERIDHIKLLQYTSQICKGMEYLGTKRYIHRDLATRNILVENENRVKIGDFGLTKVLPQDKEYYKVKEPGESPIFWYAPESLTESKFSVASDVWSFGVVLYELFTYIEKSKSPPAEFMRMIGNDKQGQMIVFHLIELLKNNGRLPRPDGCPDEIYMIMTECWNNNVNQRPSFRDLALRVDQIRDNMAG", "assay": "Assay for inhibiting JAK2 kinase (in vitro kinase assay)", "type": "biochemical", "details": "20 μM ATP; read-out: IC50 (JAK2/Bio)", "procedure": "In vitro activity of compounds of the present invention for inhibiting JAK2 kinase was determined by the following method."}}}
{"smiles": "C[C@H](O)C(=O)N1C[C@H]2C[C@H](N(C)c3ncnc4[nH]ccc34)C[C@H]2C1", "note": "[Example 17, (S)-2-Hydroxy-1-((3aR,5R,6aS)-5-(methyl(7H-pyrrolo[2,3-d]pyrimidin-4-yl)amino)hexahydrocyclopenta[c]pyrrol-2(1H)-yl)propan-1-one]", "values": [{"measurement": "Half-Life t½", "setting": "[1]", "result": "2.03 ± 0.82", "unit": "h"}, {"measurement": "IC50", "setting": "[2]", "result": 165, "unit": "nM"}, {"measurement": "IC50", "setting": "T cells; 72 h", "result": 29, "unit": "nM"}]}
{"smiles": "C[C@@H](O)C(=O)N1C[C@H]2C[C@H](N(C)c3ncnc4[nH]ccc34)C[C@H]2C1", "note": "[Example 19, (R)-2-Hydroxy-1-((3aR,5S,6aS)-5-(methyl(7H-pyrrolo[2,3-d]pyrimidin-4-yl)amino)hexahydrocyclopenta[c]pyrrol-2(1H)-yl)propan-1-one]", "values": [{"measurement": "IC50", "setting": "[2]", "result": 711, "unit": "nM"}, {"measurement": "IC50", "setting": "T cells; 72 h", "result": 724, "unit": "nM"}]}
{"smiles": "COc1nsc(NC(=O)N2C[C@H]3C[C@H](N(C)c4ncnc5[nH]ccc45)C[C@H]3C2)n1", "note": "[Example 34, (3aR,5S,6aS)—N-(3-Methoxy-1,2,4-thiadiazol-5-yl)-5-(methyl(7H-pyrrolo[2,3-d]pyrimidin-4-yl)amino)hexahydrocyclopenta[c]pyrrole-2(1H)-carboxamide]", "values": [{"measurement": "Half-Life t½", "setting": "[1]", "result": "2.10 ± 0.73", "unit": "h"}, {"measurement": "IC50", "setting": "[2]", "result": 44, "unit": "nM"}, {"measurement": "IC50", "setting": "T cells; 72 h", "result": 54, "unit": "nM"}]}
{"smiles": "CN(c1ncnc2[nH]ccc12)C1C[C@@H]2CCN(C(=O)CO)C[C@@H]2C1", "note": "(stereo partly drawn) [Example 37, 2-Hydroxy-1-((4aS,7aR)-6-(methyl(7H-pyrrolo[2,3-d]pyrimidin-4-yl)amino)hexahydro-1H-cyclopenta[c]pyridin-2(3H,4H,4aH,5H,6H,7H,7aH)-yl)ethanone]", "values": [{"measurement": "IC50", "setting": "[2]", "result": 123, "unit": "nM"}, {"measurement": "IC50", "setting": "T cells; 72 hours", "result": 453, "unit": "nM"}]}
{"smiles": "COc1nsc(NC(=O)N2CC[C@H]3CC(N(C)c4ncnc5[nH]ccc45)C[C@H]3C2)n1", "note": "(stereo partly drawn) [Example 38, (4aS,7aR)—N-(3-Methoxy-1,2,4-thiadiazol-5-yl)-6-(methyl(7H-pyrrolo[2,3-d]pyrimidin-4-yl)amino)hexahydro-1H-cyclopenta[c]pyridine-2(3H)-carboxamide]", "values": [{"measurement": "IC50", "setting": "[2]", "result": 160, "unit": "nM"}, {"measurement": "IC50", "setting": "T cells; 72 hours", "result": 71, "unit": "nM"}]}
{"smiles": "CCc1nsc(NC(=O)N2C[C@H]3C[C@H](N(C)c4ncnc5[nH]ccc45)C[C@H]3C2)n1", "note": "[Example 48, (3aR,5S,6aS)—N-(3-Ethyl-1,2,4-thiadiazol-5-yl)-5-(methyl(7H-pyrrolo[2,3-d]pyrimidin-4-yl)amino)hexahydrocyclopenta[c]pyrrole-2(1H)-carboxamide]", "values": [{"measurement": "Half-Life t½", "setting": "[1]", "result": "2.43 ± 0.75", "unit": "h"}, {"measurement": "IC50", "setting": "[2]", "result": 27, "unit": "nM"}, {"measurement": "IC50", "setting": "T cells; 72 h", "result": 23, "unit": "nM"}]}
{"smiles": "CN(c1ncnc2[nH]ccc12)[C@@H]1C[C@@H]2CN(C(=O)Nc3nncs3)C[C@@H]2C1", "note": "[Example 73, (3aR,5R,6aS)-5-(methyl(7H-pyrrolo[2,3-d]pyrimidin-4-yl)amino)-N-(1,3,4-thiadiazol-2-yl)hexahydrocyclopenta[c] pyrrole-2(1H)-carboxamide]", "values": [{"measurement": "IC50", "setting": "[2]", "result": 476, "unit": "nM"}, {"measurement": "IC50", "setting": "T cells; 72 hours", "result": 518, "unit": "nM"}]}
{"smiles": "COc1nsc(NC(=O)N2C[C@H]3C[C@@H](N(C)c4ncnc5[nH]ccc45)C[C@H]3C2)n1", "note": "[Example 74, (3aR,5R,6aS)-N-(3-methoxy-1,2,4-thiadiazol-5-yl)-5-(methyl(7H-pyrrolo[2,3-d]pyrimidin-4-yl)amino)hexahydrocyclopenta [c]pyrrole-2(1H)-carboxamide]", "values": [{"measurement": "IC50", "setting": "[2]", "result": 546, "unit": "nM"}, {"measurement": "IC50", "setting": "T cells; 72 h", "result": 68, "unit": "nM"}]}
{"smiles": "CN(c1ncnc2[nH]ccc12)[C@H]1C[C@@H]2CN(C(=O)Nc3nncs3)C[C@@H]2C1", "note": "[Example 86, (3aR,5S,6aS)-5-(methyl(7H-pyrrolo[2,3-d]pyrimidin-4-yl)amino)-N-(1,3,4-thiadiazol-2-yl)hexahydrocyclopenta[c] pyrrole-2(1H)-carboxamide]", "values": [{"measurement": "IC50", "setting": "[2]", "result": 691, "unit": "nM"}, {"measurement": "IC50", "setting": "T cells; 72 hours", "result": 130, "unit": "nM"}]}
{"smiles": "CN(c1ncnc2[nH]ccc12)[C@H]1C[C@@H]2CN(C(=O)Nc3nc(OCC(C)(C)O)ns3)C[C@@H]2C1", "note": "[Example 99]", "values": [{"measurement": "IC50", "setting": "JAK3 kinase", "result": 110, "unit": "nM"}, {"measurement": "IC50", "setting": "JAK1 kinase", "result": 0.3, "unit": "nM"}, {"measurement": "IC50", "setting": "JAK2 kinase", "result": 5, "unit": "nM"}, {"measurement": "IC50", "setting": "[2]; TF-1, 72 h", "result": 44, "unit": "nM"}, {"measurement": "IC50", "setting": "T cells; 72 h", "result": 54, "unit": "nM"}]}
{"smiles": "CN(c1ccnc2[nH]ccc12)[C@H]1C[C@@H]2CN(C(=O)CO)C[C@@H]2C1", "note": "[Example 112, 2-hydroxy-1-((3aR,5S,6aS)-5-(methyl(1H-pyrrolo[2,3-b]pyridin-4-yl)amino)hexahydrocyclopenta[c]pyrrol-2(1H)-yl) ethanone]", "values": [{"measurement": "IC50", "setting": "JAK1 kinase", "result": 96, "unit": "nM"}]}
{"smiles": "CN(c1ncnc2[nH]cc(F)c12)[C@H]1C[C@@H]2CN(C(=O)CO)C[C@@H]2C1", "note": "[Example 128, 1-((3aR,5S,6aS)-5-((5-fluoro-7H-pyrrolo[2,3-d]pyrimidin-4-yl) (methyl)amino)hexahydrocyclopenta[c]pyrrol-2(1H)-yl)-2-hydroxyethanone]", "values": [{"measurement": "IC50", "setting": "[2]; TF-1, 72 h", "result": 252, "unit": "nM"}, {"measurement": "IC50", "setting": "T cells; 72 h", "result": 167, "unit": "nM"}]}
